The record followed here is ChEMBL document CHEMBL6114946, “Development and characterization of pyridyl carboxamides as potent and highly selective Nav1.8 inhibitors” (Bioorg Med Chem Lett, 2025).

For series [1], the target named is T1, Sodium channel protein type 10 subunit alpha (Homo sapiens, UniProt Q9Y5Y9). As to the kind of experiment: Inhibition of Nav1.8 (unknown origin) at 10 uM by Ionflux high-throughput automated patch method.
Target sequence in this assay (Q9Y5Y9 whole entry, looked up): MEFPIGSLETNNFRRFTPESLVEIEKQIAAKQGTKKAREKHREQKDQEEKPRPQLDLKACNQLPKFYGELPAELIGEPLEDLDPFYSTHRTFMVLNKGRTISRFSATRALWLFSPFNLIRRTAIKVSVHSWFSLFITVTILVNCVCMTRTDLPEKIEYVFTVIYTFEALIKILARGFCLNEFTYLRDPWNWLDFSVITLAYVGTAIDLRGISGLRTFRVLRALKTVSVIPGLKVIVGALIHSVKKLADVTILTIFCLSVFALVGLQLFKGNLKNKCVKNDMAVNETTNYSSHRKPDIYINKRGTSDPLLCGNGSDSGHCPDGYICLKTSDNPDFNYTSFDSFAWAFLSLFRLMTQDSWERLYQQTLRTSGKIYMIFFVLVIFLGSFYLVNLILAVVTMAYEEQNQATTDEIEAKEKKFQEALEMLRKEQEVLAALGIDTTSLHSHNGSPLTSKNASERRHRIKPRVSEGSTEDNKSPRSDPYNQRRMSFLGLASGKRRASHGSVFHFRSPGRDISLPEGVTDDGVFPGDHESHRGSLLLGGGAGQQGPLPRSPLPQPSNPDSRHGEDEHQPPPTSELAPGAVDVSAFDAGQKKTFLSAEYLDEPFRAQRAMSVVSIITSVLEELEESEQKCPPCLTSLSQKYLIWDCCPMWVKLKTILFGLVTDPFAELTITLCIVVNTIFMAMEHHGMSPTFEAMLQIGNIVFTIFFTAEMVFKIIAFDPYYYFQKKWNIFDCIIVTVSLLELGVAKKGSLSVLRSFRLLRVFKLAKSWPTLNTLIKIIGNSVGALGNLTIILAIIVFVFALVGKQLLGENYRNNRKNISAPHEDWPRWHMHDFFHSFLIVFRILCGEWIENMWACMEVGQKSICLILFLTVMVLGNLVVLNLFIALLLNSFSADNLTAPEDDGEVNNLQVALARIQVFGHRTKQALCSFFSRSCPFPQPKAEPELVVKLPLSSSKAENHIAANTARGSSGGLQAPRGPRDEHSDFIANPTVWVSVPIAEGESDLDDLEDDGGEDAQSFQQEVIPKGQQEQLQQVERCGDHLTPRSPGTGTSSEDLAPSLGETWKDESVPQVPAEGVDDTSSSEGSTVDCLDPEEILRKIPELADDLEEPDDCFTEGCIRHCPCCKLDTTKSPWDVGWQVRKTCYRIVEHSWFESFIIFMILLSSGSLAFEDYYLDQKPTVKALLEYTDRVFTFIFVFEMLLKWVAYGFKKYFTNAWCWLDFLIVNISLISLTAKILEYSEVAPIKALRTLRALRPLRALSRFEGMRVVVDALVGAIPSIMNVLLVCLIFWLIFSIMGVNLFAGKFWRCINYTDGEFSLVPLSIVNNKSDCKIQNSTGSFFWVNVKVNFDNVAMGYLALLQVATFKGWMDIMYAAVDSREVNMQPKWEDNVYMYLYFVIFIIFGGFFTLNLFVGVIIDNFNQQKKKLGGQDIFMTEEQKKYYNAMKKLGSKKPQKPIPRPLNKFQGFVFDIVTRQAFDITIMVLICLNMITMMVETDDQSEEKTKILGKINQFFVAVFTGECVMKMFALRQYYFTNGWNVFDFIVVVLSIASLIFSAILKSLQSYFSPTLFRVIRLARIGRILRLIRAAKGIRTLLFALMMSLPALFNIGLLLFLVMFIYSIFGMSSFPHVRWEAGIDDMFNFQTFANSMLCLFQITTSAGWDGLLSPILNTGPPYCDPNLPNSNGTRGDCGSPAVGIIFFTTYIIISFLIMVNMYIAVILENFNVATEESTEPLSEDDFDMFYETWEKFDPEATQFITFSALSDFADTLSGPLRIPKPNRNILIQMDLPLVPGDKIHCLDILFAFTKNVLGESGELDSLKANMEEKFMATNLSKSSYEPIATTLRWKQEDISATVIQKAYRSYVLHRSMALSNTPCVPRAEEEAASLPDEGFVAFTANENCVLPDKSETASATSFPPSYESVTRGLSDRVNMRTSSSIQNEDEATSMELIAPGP
The target of series [2] is T1, Sodium channel protein type 10 subunit alpha. As to the kind of experiment: Inhibition of Nav1.8 (unknown origin) over expressed in HEK cells assessed as reduction in deltamethrin-stimulated channel activation by FLIPR assay. Type of series: cell-based.
Target sequence in this assay (Q9Y5Y9 whole entry): as the sequence (Q9Y5Y9 whole entry, looked up) above
For series [3] the target is unchanged. As to the kind of experiment: Inhibition of human Nav1.8 with resting membrane potential at half inactivated state by PatchXpress high-throughput electrophysiology method.
Target sequence in this assay (Q9Y5Y9 whole entry): as the sequence (Q9Y5Y9 whole entry, looked up) above
Series [4] is described as follows: Kinetic solubility of the compound in pH 7.4 phosphate buffered saline measured after 2 hrs by LC/MS analysis. In kind it is physicochemical. The settings on record: read-out: Kinetic_solubility.
Series [5] can be described thus: Genotoxicity in Salmonella typhimurium by Ames test. In kind it is toxicity. The settings on record: salmonella enterica subsp. enterica serovar typhimurium.
Series [6] is described as follows: Stability in human liver microsomes assessed as parent compound remaining measured after 60 mins. In kind it is ADME, Microsome. As to conditions: read-out: Stability.
Series [7] has as its target Voltage-gated inwardly rectifying potassium channel KCNH2 (Homo sapiens, UniProt Q12809). The series is described as follows: Inhibition of human ERG. Type of series: toxicity.
The target in series [8] is Cytochrome P450 3A4 (Homo sapiens, UniProt P08684). As to the kind of experiment: Inhibition of CYP3A4 (unknown origin). Type of series: ADME.
A short description of series [9]: Clearance in rat at 1 mg/kg. In kind it is ADME, organism-based. As to conditions: in vivo.
Series [10] can be described thus: Protein binding in human plasma assessed as unbound fraction. In kind it is ADME, cell-free.
Series [11] addresses Sodium channel protein type 10 subunit alpha (Mus musculus, UniProt Q6QIY3). The series is described as follows: Inhibition of mouse Nav1.8 with resting membrane potential at half inactivated state by PatchXpress high-throughput electrophysiology method.
Series [12] concerns the target T2, Cytochrome P450 1A2 (Homo sapiens, UniProt P05177).
T2 sequence (P05177 whole entry): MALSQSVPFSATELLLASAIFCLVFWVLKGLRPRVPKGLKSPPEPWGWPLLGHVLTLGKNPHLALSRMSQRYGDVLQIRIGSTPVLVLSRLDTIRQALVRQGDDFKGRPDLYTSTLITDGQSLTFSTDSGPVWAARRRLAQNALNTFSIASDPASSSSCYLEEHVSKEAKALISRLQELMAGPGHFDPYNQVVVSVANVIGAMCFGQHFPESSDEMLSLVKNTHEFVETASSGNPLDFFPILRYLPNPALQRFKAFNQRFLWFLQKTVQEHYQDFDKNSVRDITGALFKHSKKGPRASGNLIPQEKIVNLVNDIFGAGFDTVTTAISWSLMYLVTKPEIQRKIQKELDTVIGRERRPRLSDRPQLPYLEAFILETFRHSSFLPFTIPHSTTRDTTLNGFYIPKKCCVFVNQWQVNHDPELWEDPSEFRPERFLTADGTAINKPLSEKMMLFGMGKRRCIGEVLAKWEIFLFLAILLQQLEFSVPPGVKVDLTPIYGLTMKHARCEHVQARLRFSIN
The series is described as follows: Inhibition of CYP1A2 (unknown origin). Type of series: ADME.

≈ marks a conversion by molar mass, not a printed value. Calls of active or inactive are those of the source. The rule behind the calls is not given here.

Sequence of Sodium channel protein type 10 subunit alpha (Mus musculus, UniProt Q6QIY3) (Q6QIY3 whole entry): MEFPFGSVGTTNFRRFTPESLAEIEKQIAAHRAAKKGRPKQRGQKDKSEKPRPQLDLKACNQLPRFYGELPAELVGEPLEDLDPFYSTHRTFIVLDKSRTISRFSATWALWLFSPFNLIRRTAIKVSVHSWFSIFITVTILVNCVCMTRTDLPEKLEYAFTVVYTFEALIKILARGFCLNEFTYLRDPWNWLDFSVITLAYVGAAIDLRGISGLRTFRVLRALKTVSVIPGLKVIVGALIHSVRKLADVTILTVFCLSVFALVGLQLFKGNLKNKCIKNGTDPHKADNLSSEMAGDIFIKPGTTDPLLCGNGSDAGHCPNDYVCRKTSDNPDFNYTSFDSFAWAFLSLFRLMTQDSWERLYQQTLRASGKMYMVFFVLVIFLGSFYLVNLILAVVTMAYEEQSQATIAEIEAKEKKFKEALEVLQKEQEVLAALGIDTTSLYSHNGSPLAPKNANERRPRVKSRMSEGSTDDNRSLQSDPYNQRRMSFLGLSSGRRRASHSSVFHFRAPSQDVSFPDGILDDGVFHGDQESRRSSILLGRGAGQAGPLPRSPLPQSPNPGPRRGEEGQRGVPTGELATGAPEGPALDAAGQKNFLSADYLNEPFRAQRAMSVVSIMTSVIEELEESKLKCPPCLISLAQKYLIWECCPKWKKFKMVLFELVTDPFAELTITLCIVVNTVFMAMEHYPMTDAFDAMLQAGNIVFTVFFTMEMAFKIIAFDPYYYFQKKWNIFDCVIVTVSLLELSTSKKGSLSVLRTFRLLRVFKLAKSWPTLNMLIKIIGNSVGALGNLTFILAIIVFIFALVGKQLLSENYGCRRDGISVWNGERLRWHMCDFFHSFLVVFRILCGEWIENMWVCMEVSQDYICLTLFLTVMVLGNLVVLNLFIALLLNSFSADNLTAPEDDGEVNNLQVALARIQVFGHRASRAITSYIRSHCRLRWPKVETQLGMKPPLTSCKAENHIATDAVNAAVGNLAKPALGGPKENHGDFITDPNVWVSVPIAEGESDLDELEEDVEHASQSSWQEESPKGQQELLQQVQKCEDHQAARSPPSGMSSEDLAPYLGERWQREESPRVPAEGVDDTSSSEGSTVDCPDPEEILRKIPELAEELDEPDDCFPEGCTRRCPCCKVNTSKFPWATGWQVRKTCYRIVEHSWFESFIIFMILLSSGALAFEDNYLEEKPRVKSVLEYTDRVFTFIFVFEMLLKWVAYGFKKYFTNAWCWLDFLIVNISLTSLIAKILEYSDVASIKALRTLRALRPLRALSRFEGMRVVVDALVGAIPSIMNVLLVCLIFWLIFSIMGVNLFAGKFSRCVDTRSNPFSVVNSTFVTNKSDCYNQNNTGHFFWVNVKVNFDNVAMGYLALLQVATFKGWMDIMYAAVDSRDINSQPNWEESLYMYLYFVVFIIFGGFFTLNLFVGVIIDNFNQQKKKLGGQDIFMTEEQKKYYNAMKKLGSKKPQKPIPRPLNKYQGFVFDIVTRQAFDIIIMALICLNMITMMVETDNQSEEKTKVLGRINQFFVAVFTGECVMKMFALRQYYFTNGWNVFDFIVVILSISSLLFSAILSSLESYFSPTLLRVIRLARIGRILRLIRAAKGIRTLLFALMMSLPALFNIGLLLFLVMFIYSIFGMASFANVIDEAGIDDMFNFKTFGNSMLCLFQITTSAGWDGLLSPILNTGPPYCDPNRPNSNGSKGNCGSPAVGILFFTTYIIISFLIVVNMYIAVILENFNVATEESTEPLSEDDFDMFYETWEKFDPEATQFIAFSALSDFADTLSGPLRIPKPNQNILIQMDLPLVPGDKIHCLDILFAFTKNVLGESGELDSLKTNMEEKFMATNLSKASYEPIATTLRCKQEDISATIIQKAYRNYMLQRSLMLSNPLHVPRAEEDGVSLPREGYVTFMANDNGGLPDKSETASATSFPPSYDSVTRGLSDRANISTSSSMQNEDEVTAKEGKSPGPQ
Sequence of Voltage-gated inwardly rectifying potassium channel KCNH2 (Q12809 whole entry): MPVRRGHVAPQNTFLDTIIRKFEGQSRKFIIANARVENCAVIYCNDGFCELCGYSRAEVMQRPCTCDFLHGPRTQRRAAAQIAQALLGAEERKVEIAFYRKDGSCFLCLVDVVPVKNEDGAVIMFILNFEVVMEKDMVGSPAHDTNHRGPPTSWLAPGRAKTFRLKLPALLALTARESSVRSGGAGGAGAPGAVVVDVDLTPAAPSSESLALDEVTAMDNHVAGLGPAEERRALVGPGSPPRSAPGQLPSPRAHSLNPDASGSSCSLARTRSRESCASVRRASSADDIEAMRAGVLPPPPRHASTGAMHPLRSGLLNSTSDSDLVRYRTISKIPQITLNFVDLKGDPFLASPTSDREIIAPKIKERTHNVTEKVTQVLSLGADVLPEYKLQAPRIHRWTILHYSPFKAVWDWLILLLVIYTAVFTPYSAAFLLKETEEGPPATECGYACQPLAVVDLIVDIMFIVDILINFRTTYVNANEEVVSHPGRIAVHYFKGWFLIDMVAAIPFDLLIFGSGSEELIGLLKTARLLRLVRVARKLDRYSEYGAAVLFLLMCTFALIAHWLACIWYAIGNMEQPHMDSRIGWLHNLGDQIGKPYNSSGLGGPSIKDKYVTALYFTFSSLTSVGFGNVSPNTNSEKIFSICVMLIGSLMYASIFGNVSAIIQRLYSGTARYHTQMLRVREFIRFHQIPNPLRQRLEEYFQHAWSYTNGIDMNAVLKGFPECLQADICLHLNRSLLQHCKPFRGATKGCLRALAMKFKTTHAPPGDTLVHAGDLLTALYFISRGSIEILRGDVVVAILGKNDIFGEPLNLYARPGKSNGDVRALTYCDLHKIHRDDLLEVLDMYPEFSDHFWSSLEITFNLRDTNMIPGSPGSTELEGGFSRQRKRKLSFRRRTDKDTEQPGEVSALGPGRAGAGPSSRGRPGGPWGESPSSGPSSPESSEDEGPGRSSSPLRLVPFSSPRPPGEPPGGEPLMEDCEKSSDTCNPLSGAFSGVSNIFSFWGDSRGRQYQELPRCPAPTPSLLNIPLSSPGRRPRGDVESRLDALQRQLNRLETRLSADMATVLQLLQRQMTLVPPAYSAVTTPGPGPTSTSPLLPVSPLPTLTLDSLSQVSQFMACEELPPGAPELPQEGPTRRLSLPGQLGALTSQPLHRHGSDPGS

For the compound `COc1cc(F)ccc1Oc1ncc(C(F)(F)F)cc1C(=O)Nc1cccnc1`, the inhibition result in [1] was “Active”. Further, the IC50 (as a rule, the concentration that inhibits the measured activity by half) in series [2] came to 2200 nM.

With `COc1cc(F)ccc1Oc1ncc(C(F)(F)F)cc1C(=O)Nc1ccccn1`, the inhibition entry in [1] is “Active”. In series [2], the 50% inhibitory concentration (IC50) is above 5000 nM.

In the case of `CS(=O)(=O)c1cccc(NC(=O)c2cc(C(F)(F)F)cnc2Oc2ccc(OC(F)(F)F)cc2Cl)c1`, the figures for the half-maximal inhibitory concentration (IC50) in series [3] and in [2] were 15 nM and 24 nM, respectively. The inhibition entry in [1] was “Active”. Moreover, the solubility kinetic at 2 h in series [4] came out at 1.5 µg/mL (≈ 2.7 µM).

The compound `CC(C)Oc1ncc(C(F)(F)F)cc1C(=O)Nc1cccc(S(C)(=O)=O)c1` gave an IC50 in series [3] above 10000 nM. Besides, the inhibition entry in series [1] is “inactive”.

On to `Nc1ccc[n+]([O-])c1`, for which the Activity result in series [5] is on record as “Non-toxic”.

Turning to `COc1cc(F)ccc1Oc1ncc(C(F)(F)F)cc1C(=O)NCCN(C)C`, in series [3], the IC50 is above 10000 nM. Further, the inhibition entry in [1] is “inactive”.

Take `COc1cc(F)ccc1Oc1nc(C(F)(F)F)ccc1C(=O)Nc1cccc(S(C)(=O)=O)c1`: the inhibition entry in series [1] was “Active”. Besides, in [2], the IC50 came to 102 nM.

Regarding `COc1cc(F)ccc1Oc1ncc(C(F)(F)F)cc1C(=O)Nc1ccc[n+]([O-])c1`, in series [1], the inhibition result was “Active”. Also, the solubility kinetic at 2 h in series [4] came to 128 µg/mL (≈ 302 µM). Also, in series [2], the half-inhibitory concentration (IC50) turned out to be 1100 nM.

Take `COCCCNC(=O)c1cc(C(F)(F)F)cnc1Oc1ccc(F)cc1OC`: in [3], the IC50 was above 10000 nM. For the same compound, the inhibition result in series [1] was “inactive”.

In [3], `CS(=O)(=O)c1cccc(NC(=O)c2cc(C(F)(F)F)cnc2Oc2ccc(OC(F)(F)F)cc2)c1` returned a half-maximal inhibitory concentration (IC50) of 20 nM. The inhibition result in series [1] was “Active”. Also, the solubility kinetic at 2 h in series [4] was 4 µg/mL (≈ 7.69 µM).

Regarding `CS(=O)(=O)c1cccc(NC(=O)c2cc(C(F)(F)F)cnc2Oc2ccccc2)c1`, in series [1], the inhibition result was “Active”. Moreover, the IC50 in [2] worked out at 1600 nM.

On to `CS(=O)(=O)c1cccc(NC(=O)c2cc(C(F)(F)F)cnc2Oc2cc(F)cc(F)c2)c1`, for which the inhibition result in [1] was “Active”. In addition, the half-maximal inhibitory concentration (IC50) in [2] was found to be 1300 nM.

`Cc1cc(OC(F)(F)F)ccc1Oc1ncc(C(F)(F)F)cc1C(=O)Nc1cccc(S(C)(=O)=O)c1` yielded an IC50 in series [3] of 35 nM. Further, the inhibition entry in series [1] is “Active”. The solubility kinetic at 2 h in [4] came to 1.4 µg/mL (≈ 2.62 µM).

Take `CS(=O)(=O)c1cccc(NC(=O)c2cc(C(F)(F)F)cnc2Oc2ccc(F)cc2Cl)c1`: the inhibition result in series [1] was “Active”. In addition, in [2], the IC50 came to 251 nM.

For the compound `CS(=O)(=O)c1cccc(NC(=O)c2cc(C(F)(F)F)cnc2Oc2ccc(F)cc2F)c1`, the inhibition result in series [1] is “Active”. For the same compound, in series [4], the solubility kinetic at 2 h was 0.3 µg/mL (≈ 0.635 µM). For the same compound, in [2], the IC50 was 87 nM.

Turning to `COc1cc(F)ccc1Oc1nc(C(F)(F)F)ncc1C(=O)Nc1cccc(S(C)(=O)=O)c1`, the IC50 in series [3] is above 10000 nM. The inhibition entry in series [1] was “inactive”.

As to `COc1cc(F)ccc1Oc1ncc(C(F)(F)F)cc1C(=O)Nc1ccnnc1`, the results for the half-inhibitory concentration (IC50) in series [3] and in [2] were 250 nM and 540 nM, respectively. The inhibition result in [1] was “Active”. Also, the solubility kinetic at 2 h in [4] turned out to be 70 µg/mL (≈ 171 µM).

Take `COc1cc(F)ccc1Oc1nc2ccccc2nc1C(=O)Nc1cccc(S(C)(=O)=O)c1`: the 50% inhibitory concentration (IC50) in [3] was found to be 36 nM; in [2], 33 nM. Besides, the inhibition result in series [1] is “Active”.

On to `COc1cc(F)ccc1Oc1cc(C(F)(F)F)ncc1C(=O)Nc1cccc(S(C)(=O)=O)c1`, for which the IC50 was determined as 32 nM in series [3] and 92 nM in series [2]. Also, in series [1], the inhibition entry is “Active”.

In the case of `O=C(Nc1ccc[n+]([O-])c1)c1cc(C(F)(F)F)cnc1Oc1ccc(F)cc1Cl`, the remaining at 1 h in [6] is 95%. Moreover, the values for the IC50 in series [3], in series [7] and in series [11] were 56 nM, 15000 nM and 920 nM, respectively. The INH in series [8] and in series [12] was above 30 µM throughout. In addition, the inhibition result in series [1] was “Active”. In addition, the solubility kinetic at 2 h in series [4] turned out to be 0.084 µg/mL (≈ 0.196 µM). The clearance (as a rule, the volume of plasma or blood freed of the substance per unit of time) in [9] was determined as 3.3 mL/min/kg. Moreover, in [5], the Activity result is given as “Non-toxic”. Besides, the fraction unbound (in general, free concentration divided by total concentration) in series [10] amounted to 0.1.

Turning to `CS(=O)(=O)c1cccc(NC(=O)c2cc(C(F)(F)F)cnc2Oc2cccnc2)c1`, the inhibition result in series [1] is “Active”. Moreover, the IC50 in [2] is above 5000 nM.

For the compound `COc1cc(F)ccc1Oc1ncc(C(F)(F)F)cc1C(=O)Nc1ccncc1`, in series [1], the inhibition result was “Active”. In addition, the solubility kinetic at 2 h in series [4] was determined as 19 µg/mL (≈ 46.6 µM). Besides, the half-maximal inhibitory concentration (IC50) in series [2] is 560 nM.

Consider `COc1cc(F)ccc1Oc1ncc(C(F)(F)F)cc1C(=O)NCc1cccnc1N1CCOCC1`, for which, in series [3], the 50% inhibitory concentration (IC50) was above 10000 nM. For the same compound, the inhibition result in series [1] was “inactive”.

Regarding `CN=S(C)(=O)c1cccc(NC(=O)c2cc(C(F)(F)F)cnc2Oc2ccc(F)cc2OC)c1` (stereo unspecified), the IC50 in series [3] came out at 68 nM; in series [2] it was 69 nM. For the same compound, in [1], the inhibition entry was “Active”. For the same compound, the solubility kinetic at 2 h in series [4] is 27 µg/mL (≈ 54.3 µM).

In [3], `COc1cc(F)ccc1Oc1ncc(C(F)(F)F)cc1C(=O)Nc1cccc([S+](C)[O-])c1` (stereo unspecified) gave an IC50 of 40 nM. Also, in series [1], the inhibition result is “Active”.

As for `CS(=O)(=O)c1cccc(NC(=O)c2cc(C(F)(F)F)cnc2Oc2c(F)cccc2F)c1`, the inhibition entry in series [1] is “Active”. In addition, the IC50 in series [2] is above 5000 nM.

In the case of `COc1cc(F)ccc1Oc1ncc(C(F)(F)F)cc1C(=O)Nc1cccc(P(C)(C)=O)c1`, the inhibition result in series [1] was “Active”. The concentration for half-maximal inhibition (IC50) in series [2] is 3000 nM.

As to `COc1cc(F)ccc1Oc1nccnc1C(=O)Nc1cccc(S(C)(=O)=O)c1`, the IC50 in [3] is above 10000 nM. In addition, in [1], the inhibition result was “inactive”.

With `Cc1cc(F)ccc1Oc1ncc(C(F)(F)F)cc1C(=O)Nc1cccc(S(C)(=O)=O)c1`, the inhibition result in series [1] is “Active”. The IC50 in [2] worked out at 120 nM.

As for `CS(=O)(=O)c1cccc(NC(=O)c2cc(C(F)(F)F)cnc2Oc2ccc(F)cc2)c1`, the inhibition result in [1] was “Active”. In series [2], the IC50 worked out at 2900 nM.

With `COc1cc(F)ccc1Oc1ncc(C(F)(F)F)cc1C(=O)Nc1ccncn1`, the inhibition entry in [1] is “Active”. Further, the half-inhibitory concentration (IC50) in [2] turned out to be 240 nM.

`COc1cc(F)ccc1Oc1ncccc1C(=O)Nc1cccc(S(C)(=O)=O)c1` had a concentration for half-maximal inhibition (IC50) in series [3] above 10000 nM. Also, the inhibition result in [1] was “inactive”.

`COc1cc(F)ccc1Oc1ncc(C(F)(F)F)cc1C(=O)Nc1cccc(S(C)(=N)=O)c1` (stereo unspecified): the results for the IC50 in series [3] and in [2] were 23 nM and 22 nM, respectively. In addition, the inhibition entry in series [1] is “Active”. For the same compound, the solubility kinetic at 2 h in series [4] was 48 µg/mL (≈ 99.3 µM).

With `COc1cc(F)ccc1Oc1ccncc1C(=O)Nc1cccc(S(C)(=O)=O)c1`, in series [3], the IC50 was above 10000 nM. Besides, in [1], the inhibition result is “inactive”.
